The experiment has as its target T1, EGFR T790M/L858R (NCI-H1975 cells) (Homo sapiens, UniProt P00533, L858R/T790M).
T1 construct: NCI-H1975 (harboring EGFR heterozygous T790M/L858R mutations); host or cells: NCI-H1975
Put plainly: EGFR (L858R) degradation analysis, Total EGFR (L858R) HTRF, NCI-H1975 cells. As to conditions: 6 hours. The experiment is classed as cell-based. An excerpt: NCI-H1975 (harboring EGFR heterozygous T790M/L858R mutations) and NCI-H3255 (harboring EGFR heterozygous L858R mutation) were purchased from ATCC and NCI, respectively. NCI-H1975+CS (harboring EGFR heterozygous T/790M/L858R/C797S mutations) was generated using CRISPR technology to introduce the additional C797S mutation by Horizon Discovery. RPMI 1640 no-phenol red medium and fetal bovine serum (FBS) were purchased from Gibco (Grand Island, NY, USA). Cell culture flasks and 384-well microplates were acquired from VWR (Radnor, PA, USA). Total EGFR (L858R) HTRF assay kits were purchased from Cisbio (Bedford, MA, USA).
Degradation of EGFR protein containing L858R mutation was determined based on quantification of FRET signal using Total EGFR (L858R) HTRF assay kit. Test compounds were added to the 384-well plate from a top concentration of 10 μM with 11 points, half log titration in duplicates. NCI-H1975, NCI-H1975+CS or NCI-H3255 cells were added into 384-well plates at a cell density of 10000, 10000 or 1000 cells per well, respectively. The plates were kept at 37° C. with 5% CO2 for 6 hours. Cells treated in the absence of the test compound were the negative control. Positive control was set by wells containing all reagents but no cells. FRET signal was acquired on EnVision™ Multilabel Reader (PerkinElmer, Santa Clara, CA, USA).

Each structure is given as a SMILES string. Where only a bound is given, the exact number is not on record here.

T1 sequence (P00533 25-1210 T790M/L858R): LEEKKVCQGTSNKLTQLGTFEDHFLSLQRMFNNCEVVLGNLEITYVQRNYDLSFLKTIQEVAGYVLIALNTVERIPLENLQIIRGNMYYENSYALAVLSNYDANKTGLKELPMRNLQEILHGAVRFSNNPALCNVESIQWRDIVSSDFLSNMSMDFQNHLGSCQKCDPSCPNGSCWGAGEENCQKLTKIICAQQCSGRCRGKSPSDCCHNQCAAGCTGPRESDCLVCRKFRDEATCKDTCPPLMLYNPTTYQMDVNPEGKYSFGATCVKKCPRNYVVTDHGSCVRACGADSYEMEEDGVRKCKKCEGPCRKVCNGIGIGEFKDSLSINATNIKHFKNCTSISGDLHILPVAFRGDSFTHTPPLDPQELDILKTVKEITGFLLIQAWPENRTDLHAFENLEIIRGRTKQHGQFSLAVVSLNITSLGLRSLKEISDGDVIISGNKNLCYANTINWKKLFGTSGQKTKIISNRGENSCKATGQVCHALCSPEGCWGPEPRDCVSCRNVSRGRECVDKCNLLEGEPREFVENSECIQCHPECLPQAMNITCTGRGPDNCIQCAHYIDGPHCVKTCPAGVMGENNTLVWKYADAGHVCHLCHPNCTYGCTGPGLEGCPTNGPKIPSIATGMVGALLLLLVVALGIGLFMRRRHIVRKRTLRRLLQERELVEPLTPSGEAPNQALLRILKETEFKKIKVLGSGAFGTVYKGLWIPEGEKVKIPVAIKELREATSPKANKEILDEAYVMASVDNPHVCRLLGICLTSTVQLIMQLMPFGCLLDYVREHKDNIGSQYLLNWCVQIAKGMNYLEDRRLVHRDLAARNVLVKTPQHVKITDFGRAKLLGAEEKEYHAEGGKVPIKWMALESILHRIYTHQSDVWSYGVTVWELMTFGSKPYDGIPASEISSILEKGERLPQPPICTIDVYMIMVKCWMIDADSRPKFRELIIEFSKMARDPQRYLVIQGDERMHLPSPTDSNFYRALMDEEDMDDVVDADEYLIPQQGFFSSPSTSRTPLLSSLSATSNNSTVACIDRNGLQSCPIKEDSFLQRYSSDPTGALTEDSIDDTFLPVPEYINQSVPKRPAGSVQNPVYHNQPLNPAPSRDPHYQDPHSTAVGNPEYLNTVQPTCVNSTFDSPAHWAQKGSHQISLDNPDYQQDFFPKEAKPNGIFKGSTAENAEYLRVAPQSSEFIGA

For `O=C1CCC(c2ccc(N3CCC(O)(CC(=O)N4CCC5(CC4)CN(c4ccc(-c6cc(F)c7c(c6)C(=O)N(C(C(=O)Nc6nccs6)c6ncn8c6CCC8)C7)cc4)C5)CC3)c(F)c2)C(=O)N1` (stereo not drawn) [Compound 160, 2-(6,7-dihydro-5H-pyrrolo[1,2-c]imidazol-1-yl)-2-[6-[4-[7-[2-[1-[4-(2,6-dioxo-3-piperidyl)-2-fluoro-phenyl]-4-hydroxy-4-piperidyl]acetyl]-2,7-diazaspiro[3.5]nonan-2-yl]phenyl]-4-fluoro-1-oxo-isoindolin-2-yl]-N-thiazol-2-yl-acetamide], where the note is “class symbols”, the DC50 (as a rule, the midpoint of the concentration-degradation curve) lay in the range of 50 to 150 nM.

On to `O=C1CCC(Oc2ccc(N3CCN(CC(=O)N4CCC(NC(=O)c5ccc(C#Cc6cc(F)c7c(c6)C(=O)N(C(C(=O)Nc6nccs6)c6ncn8c6CCC8)C7)cn5)CC4)CC3)cc2)C(=O)N1` (racemic) [Compound 3, 5-[2-[7-Fluoro-3-oxo-2-[(1RS)-1-(6,7-dihydro-5H-pyrrolo[1,2-c]imidazol-1-yl)-2-oxo-2-(thiazol-2-ylamino)ethyl]isoindolin-5-yl]ethynyl]-N-[1-[2-[4-[4-[[(3RS)-2,6-dioxo-3-piperidyl]oxy]phenyl]piperazin-1-yl]acetyl]-4-piperidyl]pyridine-2-carboxamide], for which it took 4 nM to reach half-maximal degradation (DC50). That is a single-digit nanomolar value.

The compound `O=C1CCC(Nc2ccc(N3CCC(O)(CC(=O)N4CCN(c5ccc(-c6cc(F)c7c(c6)C(=O)N(C(C(=O)Nc6nccs6)c6ncn8c6CCC8)C7)cc5)CC4)CC3)c(C(F)(F)F)c2)C(=O)N1` (stereo not drawn) [Compound 18, 2-(6,7-dihydro-5H-pyrrolo[1,2-c]imidazol-1-yl)-2-(6-(4-(4-(2-(1-(4-((2,6-dioxopiperidin-3-yl)amino)-2-(trifluoromethyl)phenyl)-4-hydroxypiperidin-4-yl)acetyl)piperazin-1-yl)phenyl)-4-fluoro-1-oxoisoindolin-2-yl)-N-(thiazol-2-yl)acetamide] came in with a DC50 of 46 nM. Compared with the last compound, the DC50 is about 12-fold higher.

As to `O=C1CC[C@H](Nc2ccc(N3CCC(O)(C(=O)N4CC5(C4)CN(c4ccc(-c6cc(F)c7c(c6)C(=O)N(C(C(=O)Nc6nccs6)c6ncn8c6CCC8)C7)cc4)C5)CC3)c(F)c2)C(=O)N1` (stereo partly drawn) [Compound 146, 2-(6,7-dihydro-5H-pyrrolo[1,2-c]imidazol-1-yl)-2-[6-[4-[2-[1-[4-[[2,6-dioxo-3-piperidyl]amino]-2-fluoro-phenyl]-4-hydroxy-piperidine-4-carbonyl]-2,6-diazaspiro[3.3]heptan-6-yl]phenyl]-4-fluoro-1-oxo-isoindolin-2-yl]-N-thiazol-2-yl-acetamide], where the note is “class symbols”, the DC50 is below 50 nM.

`O=C1CC[C@@H](Nc2ccc(C3CCN(CC(=O)N4CCC(c5ccc(-c6cc(F)c7c(c6)C(=O)N(C(C(=O)Nc6nccs6)c6ncn8c6CCC8)C7)cc5)CC4)CC3)cc2)C(=O)N1` (stereo partly drawn) [Compound 23, 2-(6,7-dihydro-5H-pyrrolo[1,2-c]imidazol-1-yl)-2-(6-(4-(1-(2-(4-(4-(((R)-2,6-dioxopiperidin-3-yl)amino)phenyl)piperidin-1-yl)acetyl)piperidin-4-yl)phenyl)-4-fluoro-1-oxoisoindolin-2-yl)-N-(thiazol-2-yl)acetamide] yielded a 50% degradation concentration (DC50) of 33 nM. That is a double-digit nanomolar value.

In the case of `O=C1CCC(Nc2ccc(C3CCN(CC(=O)N4CCN(c5ccc(-c6cc(F)c7cn(C(C(=O)Nc8nccs8)c8ncn9c8CCC9)nc7c6)cn5)CC4)CC3)cc2)C(=O)N1` (stereo not drawn) [Compound 65, 2-(6,7-dihydro-5H-pyrrolo[1,2-c]imidazol-1-yl)-2-[6-[6-[4-[2-[4-[4-[(2,6-dioxo-3-piperidyl)amino]phenyl]-1-piperidyl]acetyl]piperazin-1-yl]-3-pyridyl]-4-fluoro-indazol-2-yl]-N-thiazol-2-yl-acetamide], the DC50 was 36 nM.

`O=C1CCC(Nc2ccc(C3CCN(CC(=O)N4CCC(Oc5ccc(-c6cc(F)c7c(c6)C(=O)N(C(C(=O)Nc6nccs6)c6ncn8c6CCC8)C7)cc5)CC4)CC3)cc2)C(=O)N1` (stereo not drawn) [Compound 31, 2-(6,7-dihydro-5H-pyrrolo[1,2-c]imidazol-1-yl)-2-[6-[4-[[1-[2-[4-[4-[(2,6-dioxo-3-piperidyl)amino]phenyl]-1-piperidyl]acetyl]-4-piperidyl]oxy]phenyl]-4-fluoro-1-oxo-isoindolin-2-yl]-N-thiazol-2-yl-acetamide] registered a DC50 of 32 nM.

`O=C1CCC(Nc2ccc(CC(=O)N3CCC(NC(=O)c4ccc(C#Cc5cc(F)c6c(c5)C(=O)N(C(C(=O)Nc5nccs5)c5ncn7c5CCC7)C6)cn4)CC3)cc2)C(=O)N1` (stereo not drawn) [Compound 2, 5-[2-[2-[1-(6,7-dihydro-5H-pyrrolo[1,2-c]imidazol-1-yl)-2-oxo-2-(thiazol-2-ylamino)ethyl]-7-fluoro-3-oxo-isoindolin-5-yl]ethynyl]-N-[1-[2-[4-[(2,6-dioxo-3-piperidyl)amino]phenyl]acetyl]-4-piperidyl]pyridine-2-carboxamide] returned a DC50 of 7 nM.

In the case of `O=C1CCC(Nc2cc(F)c(N3CCC(O)(CC(=O)N4CC5(C4)CN(c4ccc(-c6cc(F)c7c(c6)C(=O)N(C(C(=O)Nc6nccs6)c6ncn8c6CCC8)C7)cc4)C5)CC3)c(Cl)c2)C(=O)N1` (stereo not drawn) [Compound 145, 2-[6-[4-[2-[2-[1-[2-chloro-4-[[2,6-dioxo-3-piperidyl]amino]-6-fluoro-phenyl]-4-hydroxy-4-piperidyl]acetyl]-2,6-diazaspiro[3.3]heptan-6-yl]phenyl]-4-fluoro-1-oxo-isoindolin-2-yl]-2-(6,7-dihydro-5H-pyrrolo[1,2-c]imidazol-1-yl)-N-thiazol-2-yl-acetamide], the half-maximal degradation concentration (DC50) (class symbols) lay in the range of 50 to 150 nM.

`Cn1nc(N2CCC(=O)NC2=O)c2ccc(C3CCN(CC(=O)N4CC5(C4)CN(c4ccc(-c6cc(F)c7c(c6)C(=O)N(C(C(=O)Nc6ccccn6)c6ncn8c6CCC8)C7)cc4)C5)CC3)cc21` (stereo not drawn) [Compound 54, 2-(6,7-dihydro-5H-pyrrolo[1,2-c]imidazol-1-yl)-2-[6-[4-[2-[2-[4-[3-(2,4-dioxohexahydropyrimidin-1-yl)-1-methyl-indazol-6-yl]-1-piperidyl]acetyl]-2,6-diazaspiro[3.3]heptan-6-yl]phenyl]-4-fluoro-1-oxo-isoindolin-2-yl]-N-(2-pyridyl)acetamide] yielded a DC50 of 16 nM. That is a double-digit nanomolar value.

In the case of `O=C1NC(=O)C2(Nc3ccc(C4CCN(CC(=O)N5CCC(Oc6ccc(-c7cc(F)c8c(c7)C(=O)N(C(C(=O)Nc7nccs7)c7ncn9c7CCC9)C8)cc6)CC5)CC4)cc3)CC1C2` (stereo not drawn) [Compound 38, 2-(6,7-dihydro-5H-pyrrolo[1,2-c]imidazol-1-yl)-2-(6-(4-((1-(2-(4-(4-((2,4-dioxo-3-azabicyclo[3.1.1]heptan-1-yl)amino)phenyl)piperidin-1-yl)acetyl)piperidin-4-yl)oxy)phenyl)-4-fluoro-1-oxoisoindolin-2-yl)-N-(thiazol-2-yl)acetamide], it took 52 nM to reach half-maximal degradation (DC50).

`O=C1CCC(Nc2ccc(C3CCN(CC(=O)N4CCC(Oc5ccc(-c6cc(F)c7c(c6)C(=O)N(C(C(=O)Nc6nccs6)c6ncn8c6CCC8)C7)cc5)CC4)CC3)nc2)C(=O)N1` (stereo not drawn) [Compound 36, 2-(6,7-dihydro-5H-pyrrolo[1,2-c]imidazol-1-yl)-2-(6-(4-((1-(2-(4-(5-((2,6-dioxopiperidin-3-yl)amino)pyridin-2-yl)piperidin-1-yl)acetyl)piperidin-4-yl)oxy)phenyl)-4-fluoro-1-oxoisoindolin-2-yl)-N-(thiazol-2-yl)acetamide] yielded a DC50 of 31 nM.

(Values after patent US12486290B2, “Isoindolinone and indazole compounds for the degradation of EGFR” (C4 THERAPEUTICS, INC., priority 2019, dated 2025).)
